Assay results: publication PMC9827040 (Blood Advances, 2022)

How the values were obtained:
[1] = test system: CCL3 and CCL4 secretion by TMD-8 cells; assay: CCL3 & CCL4 ELISA in anti-IgM stimulated TMD-8 cells; type: cell-based, human; details: 10 nM for 24 hours, 10 μg/mL anti-IgM 8 hours
[2] = biological target: CRBN (Homo sapiens, UniProt Q96SW2); assay: CRBN-target-binding assay; details: HTRF
[3] = test system: TMD-8 BTK C481S cells; assay: Cell proliferation, C481S BTK-overexpressing TMD-8 cells; type: cell-based, human
[4] = test system: WT and mutant BTK (E41K, T474I, C481S, C481R, C481T, C481Y, C481F, L528W); assay: WT or mutant BTK transiently expressed in HEK293 cells, immunoblotting; type: cell-based; details: HEK293, 0.1, 1 and 10 μM, 24 hours
[5] = test system: CRBN neosubstrates (Ikaros, Helios, Aiolos, GSPT1, CK1-a); assay: Immunoblotting of CRBN neosubstrates in hematological cell lines; type: cell-based; details: 100 nM, 24 or 72 hours

Sequence of CRBN (Q96SW2 whole entry): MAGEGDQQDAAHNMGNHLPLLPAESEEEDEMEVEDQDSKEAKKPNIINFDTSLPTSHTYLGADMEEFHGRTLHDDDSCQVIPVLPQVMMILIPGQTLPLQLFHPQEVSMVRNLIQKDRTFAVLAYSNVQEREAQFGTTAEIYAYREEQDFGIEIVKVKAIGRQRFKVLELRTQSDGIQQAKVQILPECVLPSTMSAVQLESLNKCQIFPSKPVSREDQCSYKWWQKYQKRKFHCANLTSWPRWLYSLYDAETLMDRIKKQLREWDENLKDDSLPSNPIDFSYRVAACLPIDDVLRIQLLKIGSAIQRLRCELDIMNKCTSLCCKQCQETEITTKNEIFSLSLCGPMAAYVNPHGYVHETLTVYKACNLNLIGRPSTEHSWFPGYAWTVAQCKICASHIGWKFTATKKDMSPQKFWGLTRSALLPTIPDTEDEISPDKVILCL

| binding to CRBN [2] | SMILES | CCL3 or CCL4 secretion [1] | also measured |
| --- | --- | --- | --- |
| – | CC#CC(=O)N1CCC[C@H]1c1nc(-c2ccc(C(=O)Nc3ccccn3)cc2)c2c(N)nccn12 [acalabrutinib] | significantly abrogated CCL3 or CCL4 secretion | – |
| did not bind to CRBN | C=CC(=O)N1CCC[C@@H](n2nc(-c3ccc(Oc4ccccc4)cc3)c3c(N)ncnc32)C1 [ibrutinib] | significantly abrogated CCL3 or CCL4 secretion | inhibition of proliferation of C481S BTK-overexpressing TMD-8 cells [3]: resistance |
| – | Nc1ncnc2c1c(-c1ccc(Oc3ccccc3)cc1)nn2C1CCN(CCOCCOCC(=O)Nc2ccc3c(c2)C(=O)N(C2CCC(=O)NC2=O)C3=O)CC1 (centres unmarked) [MT-802] | little or no effect | degradation of WT and mutant BTK [4]: can also degrade E41K, C481R, C481Y, C481T, and C481F BTK mutants |
| did not bind to CRBN | O=C(c1ccc(Oc2ccccc2)cc1Cl)c1c[nH]c2ncnc(N[C@@H]3CC[C@@H](CO)OC3)c12 [ARQ-531] | little or no effect | BTK phosphorylation in C481S and E41K BTK mutants [4]: substantially attenuated |
| – | O=C1CCC(N2C(=O)c3ccccc3C2=O)C(=O)N1 (centres unmarked) [thalidomide] | – | change in neosubstrates of U2932 and WSU-WM [5]: No significant change; degradation of CRBN neosubstrates in any of the tested cell lines [5]: did not lead to any significant degradation |
